Assay results published in ChEMBL document CHEMBL4421717, “Antagonists and agonists of bitter taste receptors and uses thereof” (2012).
Calls of active or inactive are those of the source. The rule behind the calls is not given here.

Experiments:
Format in all cases: functional, cell-based
[1] = target: T1, Taste receptor type 2 member 8 (Homo sapiens) (UniProt Q9NYW2); experiment: Agonist activity at recombinant human N-terminal rat ST3 receptor-fused TAS2R8 expressed in HEK293T cells co-expressing Galpha16gust44 assessed as effect on intracellular calcium level at 100 uM by FLIPR assay
T1 sequence (whole entry): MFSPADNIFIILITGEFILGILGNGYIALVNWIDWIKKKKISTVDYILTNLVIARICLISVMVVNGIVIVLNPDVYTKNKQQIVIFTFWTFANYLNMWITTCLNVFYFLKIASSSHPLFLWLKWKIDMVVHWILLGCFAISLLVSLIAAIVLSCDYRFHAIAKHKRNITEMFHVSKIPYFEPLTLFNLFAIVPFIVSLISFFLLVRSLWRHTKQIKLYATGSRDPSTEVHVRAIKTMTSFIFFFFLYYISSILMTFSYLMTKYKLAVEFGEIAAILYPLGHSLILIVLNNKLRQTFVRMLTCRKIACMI

[2] = target: Taste receptor type 2 member 7 (Homo sapiens) (UniProt Q9NYW3); experiment: Agonist activity at recombinant human N-terminal rat ST3 receptor-fused TAS2R7 expressed in HEK293T cells co-expressing Galpha16gust44 assessed as effect on intracellular calcium level at 100 uM by FLIPR assay
[3] = target: Taste receptor type 2 member 45 (Homo sapiens) (UniProt P59539); experiment: Agonist activity at recombinant human N-terminal rat ST3 receptor-fused TAS2R45 expressed in HEK293T cells co-expressing Galpha16gust44 assessed as effect on intracellular calcium level at 100 uM by FLIPR assay
[4] = target: Taste receptor type 2 member 31 (Homo sapiens) (UniProt P59538); experiment: Agonist activity at recombinant human N-terminal rat ST3 receptor-fused TAS2R44 expressed in HEK293T cells co-expressing Galpha16gust44 assessed as effect on intracellular calcium level at 100 uM by FLIPR assay
[5] = target: Taste receptor type 2 member 42 (Homo sapiens) (UniProt Q7RTR8); experiment: Agonist activity at recombinant human N-terminal rat ST3 receptor-fused TAS2R42 expressed in HEK293T cells co-expressing Galpha16gust44 assessed as effect on intracellular calcium level at 100 uM by FLIPR assay
[6] = target: Taste receptor type 2 member 5 (Homo sapiens) (UniProt Q9NYW4); experiment: Activity at recombinant human N-terminal rat ST3 receptor-fused TAS2R5 expressed in HEK293T cells co-expressing Galpha16gust44 assessed as increase in denatonium saccharide-induced intracellular calcium level at 100 uM by FLIPR assay
[7] = target: Taste receptor type 2 member 41 (Homo sapiens) (UniProt P59536); experiment: Agonist activity at recombinant human N-terminal rat ST3 receptor-fused TAS2R41 expressed in HEK293T cells co-expressing Galpha16gust44 assessed as effect on intracellular calcium level at 100 uM by FLIPR assay
[8] = target: T2, Taste receptor type 2 member 50 (Homo sapiens) (UniProt P59544); experiment: Agonist activity at recombinant human N-terminal rat ST3 receptor-fused TAS2R50 expressed in HEK293T cells co-expressing Galpha16gust44 assessed as effect on intracellular calcium level at 100 uM by FLIPR assay
T2 sequence (whole entry): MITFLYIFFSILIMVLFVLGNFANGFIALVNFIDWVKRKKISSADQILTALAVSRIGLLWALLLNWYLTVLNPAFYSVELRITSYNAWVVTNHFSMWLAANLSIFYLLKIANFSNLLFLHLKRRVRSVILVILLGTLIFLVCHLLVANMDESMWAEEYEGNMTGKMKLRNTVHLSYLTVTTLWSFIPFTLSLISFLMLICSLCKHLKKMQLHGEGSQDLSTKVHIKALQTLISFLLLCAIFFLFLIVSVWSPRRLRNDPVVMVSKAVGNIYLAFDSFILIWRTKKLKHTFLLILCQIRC

[9] = target: Taste receptor type 2 member 31 (Homo sapiens, UniProt P59538); experiment: Agonist activity at recombinant human N-terminal rat ST3 receptor-fused TAS2R44 expressed in HEK293T cells co-expressing Galpha16gust44 assessed as effect on intracellular calcium level by FLIPR assay
[10] = target: Taste receptor type 2 member 60 (Homo sapiens) (UniProt P59551); experiment: Agonist activity at recombinant human N-terminal rat ST3 receptor-fused TAS2R60 expressed in HEK293T cells co-expressing Galpha16gust44 assessed as effect on intracellular calcium level at 100 uM by FLIPR assay
[11] = target: Taste receptor type 2 member 19 (Homo sapiens) (UniProt P59542); experiment: Agonist activity at recombinant human N-terminal rat ST3 receptor-fused TAS2R48 expressed in HEK293T cells co-expressing Galpha16gust44 assessed as effect on intracellular calcium level at 100 uM by FLIPR assay
[12] = target: Taste receptor type 2 member 7 (Homo sapiens) (UniProt Q9NYW3); experiment: Activity at recombinant human N-terminal rat ST3 receptor-fused TAS2R7 expressed in HEK293T cells co-expressing Galpha16gust44 assessed as increase in quinine sulfate-induced intracellular calcium level at 100 uM by FLIPR assay
[13] = target: T3, Taste receptor type 2 member 46 (Homo sapiens, UniProt P59540); experiment: Antagonist activity at recombinant human N-terminal rat ST3 receptor-fused TAS2R46 expressed in HEK293T cells co-expressing Galpha16gust44 assessed as inhibition of 100 uM absinthin-induced intracellular calcium level 100 uM by FLIPR assay
T3 sequence (P59540 whole entry): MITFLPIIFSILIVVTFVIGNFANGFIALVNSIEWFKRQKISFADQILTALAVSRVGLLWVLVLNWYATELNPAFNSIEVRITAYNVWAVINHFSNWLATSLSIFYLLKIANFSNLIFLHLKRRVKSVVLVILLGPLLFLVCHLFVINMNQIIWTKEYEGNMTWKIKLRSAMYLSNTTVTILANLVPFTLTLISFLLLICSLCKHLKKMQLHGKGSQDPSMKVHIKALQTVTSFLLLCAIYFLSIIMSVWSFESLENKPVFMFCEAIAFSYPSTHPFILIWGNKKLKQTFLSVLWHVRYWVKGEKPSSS

[14] = target: T3, Taste receptor type 2 member 46; experiment: Antagonist activity at recombinant human N-terminal rat ST3 receptor-fused TAS2R46 expressed in HEK293T cells co-expressing Galpha16gust44 assessed as inhibition of 30 uM andrographolide-induced intracellular calcium level 100 uM by FLIPR assay
[15] = target: T3, Taste receptor type 2 member 46; experiment: Antagonist activity at recombinant human N-terminal rat ST3 receptor-fused TAS2R46 expressed in HEK293T cells co-expressing Galpha16gust44 assessed as inhibition of 300 uM picrotoxinin-induced intracellular calcium level 100 uM by FLIPR assay

Taste receptor type 2 member 7 (Homo sapiens), sequence (Q9NYW3 whole entry, the tested form may be a part): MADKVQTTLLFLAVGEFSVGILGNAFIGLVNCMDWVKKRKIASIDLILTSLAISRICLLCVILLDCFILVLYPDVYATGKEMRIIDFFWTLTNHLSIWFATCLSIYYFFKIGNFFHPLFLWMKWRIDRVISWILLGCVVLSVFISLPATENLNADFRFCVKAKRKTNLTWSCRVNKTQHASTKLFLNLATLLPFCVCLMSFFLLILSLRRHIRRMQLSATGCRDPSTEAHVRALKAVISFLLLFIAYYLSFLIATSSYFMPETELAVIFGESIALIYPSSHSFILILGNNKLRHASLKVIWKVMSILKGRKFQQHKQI
Taste receptor type 2 member 60 (Homo sapiens), sequence (P59551 whole entry, the tested form may be a part): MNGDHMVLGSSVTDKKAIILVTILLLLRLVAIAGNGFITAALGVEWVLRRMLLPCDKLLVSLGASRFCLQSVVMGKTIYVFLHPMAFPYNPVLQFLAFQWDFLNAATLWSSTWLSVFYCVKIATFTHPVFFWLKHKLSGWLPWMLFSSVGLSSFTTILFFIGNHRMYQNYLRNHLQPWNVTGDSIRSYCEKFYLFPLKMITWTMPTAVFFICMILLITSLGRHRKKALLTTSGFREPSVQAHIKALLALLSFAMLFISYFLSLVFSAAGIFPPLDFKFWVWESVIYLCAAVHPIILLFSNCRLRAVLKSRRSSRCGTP
Taste receptor type 2 member 42 (Homo sapiens), sequence (Q7RTR8 whole entry, the tested form may be a part): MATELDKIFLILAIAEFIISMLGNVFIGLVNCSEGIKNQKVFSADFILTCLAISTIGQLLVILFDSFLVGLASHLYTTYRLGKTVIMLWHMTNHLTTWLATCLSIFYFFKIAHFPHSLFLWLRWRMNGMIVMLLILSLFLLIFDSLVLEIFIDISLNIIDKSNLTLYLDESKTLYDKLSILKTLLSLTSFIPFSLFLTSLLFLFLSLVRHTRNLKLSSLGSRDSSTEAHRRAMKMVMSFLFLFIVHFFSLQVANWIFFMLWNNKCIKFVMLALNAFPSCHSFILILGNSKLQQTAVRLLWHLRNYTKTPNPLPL
Taste receptor type 2 member 41 (Homo sapiens), sequence (P59536 whole entry, the tested form may be a part): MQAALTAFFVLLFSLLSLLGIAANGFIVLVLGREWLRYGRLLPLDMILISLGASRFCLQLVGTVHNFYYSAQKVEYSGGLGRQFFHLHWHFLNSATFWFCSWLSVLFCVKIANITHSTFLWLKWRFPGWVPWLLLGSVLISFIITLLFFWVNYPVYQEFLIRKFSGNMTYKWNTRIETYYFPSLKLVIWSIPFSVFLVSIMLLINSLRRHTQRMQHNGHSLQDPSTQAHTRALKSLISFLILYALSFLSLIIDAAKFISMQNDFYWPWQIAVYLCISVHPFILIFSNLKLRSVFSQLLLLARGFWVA
Taste receptor type 2 member 31, sequence (P59538 whole entry, the tested form may be a part): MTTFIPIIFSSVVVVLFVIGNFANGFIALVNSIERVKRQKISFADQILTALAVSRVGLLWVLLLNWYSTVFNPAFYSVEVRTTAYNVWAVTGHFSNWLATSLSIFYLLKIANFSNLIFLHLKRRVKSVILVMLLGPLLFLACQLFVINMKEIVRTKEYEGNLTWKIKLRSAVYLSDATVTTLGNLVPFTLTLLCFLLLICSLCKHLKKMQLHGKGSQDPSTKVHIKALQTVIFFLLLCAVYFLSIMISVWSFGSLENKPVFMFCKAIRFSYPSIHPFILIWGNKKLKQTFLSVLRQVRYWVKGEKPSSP
Taste receptor type 2 member 31 (Homo sapiens), sequence (P59538 whole entry, the tested form may be a part): as above
Taste receptor type 2 member 19 (Homo sapiens), sequence (P59542 whole entry, the tested form may be a part): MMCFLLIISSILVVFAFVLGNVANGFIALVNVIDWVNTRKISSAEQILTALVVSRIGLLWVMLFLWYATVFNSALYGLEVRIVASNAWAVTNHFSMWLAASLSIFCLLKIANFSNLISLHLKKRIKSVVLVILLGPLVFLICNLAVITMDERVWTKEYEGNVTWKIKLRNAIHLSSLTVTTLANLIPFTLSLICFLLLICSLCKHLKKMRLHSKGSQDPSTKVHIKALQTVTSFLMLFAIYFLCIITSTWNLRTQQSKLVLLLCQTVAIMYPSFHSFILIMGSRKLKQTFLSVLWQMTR
Taste receptor type 2 member 5 (Homo sapiens), sequence (Q9NYW4 whole entry, the tested form may be a part): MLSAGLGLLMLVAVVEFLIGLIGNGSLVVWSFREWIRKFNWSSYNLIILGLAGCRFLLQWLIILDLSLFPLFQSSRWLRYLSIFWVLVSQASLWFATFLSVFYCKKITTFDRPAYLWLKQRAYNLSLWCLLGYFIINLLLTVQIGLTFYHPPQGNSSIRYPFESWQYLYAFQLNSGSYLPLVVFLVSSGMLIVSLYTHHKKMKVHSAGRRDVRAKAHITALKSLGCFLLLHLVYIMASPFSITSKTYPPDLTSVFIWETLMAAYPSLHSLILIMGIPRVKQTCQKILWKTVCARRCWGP
Taste receptor type 2 member 45 (Homo sapiens), sequence (P59539 whole entry, the tested form may be a part): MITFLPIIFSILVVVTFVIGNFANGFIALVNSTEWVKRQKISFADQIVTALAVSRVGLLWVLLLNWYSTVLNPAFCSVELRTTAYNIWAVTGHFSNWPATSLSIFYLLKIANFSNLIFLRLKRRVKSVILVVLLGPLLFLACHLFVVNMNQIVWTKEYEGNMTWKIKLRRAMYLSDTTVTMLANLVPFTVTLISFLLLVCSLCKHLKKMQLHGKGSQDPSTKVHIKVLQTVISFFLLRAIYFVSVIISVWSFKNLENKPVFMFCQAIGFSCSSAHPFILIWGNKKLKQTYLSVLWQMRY

C/C1=C\C[C@H](O)/C(C)=C/[C@H]2OC(=O)[C@@H](C)C2CC1 (stereo not given in full)
Activity [1]: Active
Activity [2]: Active
Activity [3]: inactive
Activity [4]: Active
Activity [5]: inactive
Activity [6]: Active
Activity [7]: inactive
Activity [8]: inactive
EC50 [9]: 31.5 µM
Activity [10]: inactive
Activity [11]: inactive
Activity [12]: Active

C/C1=C\C[C@H](O)[C@@H](C)C[C@H]2OC(=O)[C@@H](C)C2CC1 (stereo not given in full)
IC50 [13]: 57.8 µM
IC50 [14]: 44.5 µM
IC50 [15]: 22.9 µM
